Laboratory results: patent US20190079075A1, “PHARMECEUTICAL COMPOSITION FOR LUNG CANCER TREATMENT AND METHODS FOR PROVIDING INFORMATION AND SCREENING” (DONG-A UNIVERSITY RESEARCH FOUNDATION FOR INDUSTRY-ACADEMY …, priority 2015, published 2019)

Key:
[1] = molecular target: T1, SIRT1 (Homo sapiens, UniProt Q96EB6); assay: XPA loading to chromatin (chromatin-enriched fraction, immunoblotting); conditions: EX527 pretreatment before cisplatin following UV-PreC; FIG. 8B
T1 sequence (Q96EB6 1-747): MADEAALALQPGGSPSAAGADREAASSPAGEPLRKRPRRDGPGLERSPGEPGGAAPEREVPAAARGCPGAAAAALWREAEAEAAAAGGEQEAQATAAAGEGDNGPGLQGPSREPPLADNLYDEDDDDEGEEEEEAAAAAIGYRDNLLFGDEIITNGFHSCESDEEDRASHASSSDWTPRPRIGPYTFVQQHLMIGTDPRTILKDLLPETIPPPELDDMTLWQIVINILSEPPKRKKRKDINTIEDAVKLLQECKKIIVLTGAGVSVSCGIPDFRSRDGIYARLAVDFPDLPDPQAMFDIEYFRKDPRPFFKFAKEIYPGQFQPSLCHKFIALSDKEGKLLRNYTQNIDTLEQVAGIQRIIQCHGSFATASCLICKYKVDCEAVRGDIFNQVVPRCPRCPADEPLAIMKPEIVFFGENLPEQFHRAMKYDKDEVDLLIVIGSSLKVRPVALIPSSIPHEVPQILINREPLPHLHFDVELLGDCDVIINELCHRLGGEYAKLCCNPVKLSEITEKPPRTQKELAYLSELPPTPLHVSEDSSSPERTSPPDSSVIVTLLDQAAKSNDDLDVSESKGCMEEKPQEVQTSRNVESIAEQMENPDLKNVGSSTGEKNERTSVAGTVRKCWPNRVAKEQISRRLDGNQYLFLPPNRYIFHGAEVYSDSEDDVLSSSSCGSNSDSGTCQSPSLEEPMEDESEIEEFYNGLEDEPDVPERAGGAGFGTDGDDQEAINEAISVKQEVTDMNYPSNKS

[2] = molecular target: T1, SIRT1; assay: XPA acetylation by immunoprecipitation of XPA and immunoblotting with anti-acetyl-lysine antibody; format: cell-based; conditions: UV-PreC cells pretreated with EX527 for 5 h before cisplatin treatment; FIG. 8B
Method: PreC cells were pretreated with EX527 for 5 h before cisplatin treatment.
Antibodies used in this study include those against XPA (Kamiya), XPB-XPD (Santa Cruz Biotechnology, Santa Cruz, Calif., USA), XPE, p-p53, p-CHK1, GAPDH, SIRT1, acetyl-lysine (Cell Signaling Technology), XPF, and XPG (both Abcam, Cambridge, UK). For immunoprecipitation of XPA, 1 mg of whole-cell lysate was incubated with 1 μg of anti-XPA conjugated to Protein A/G-agarose beads (Sigma, St. Louis, Mo., USA) for 12 h at 4° C. with rotation. After washing with lysis buffer, proteins were eluted from the beads by boiling in SDS sample buffer and resolved on 10% SDS-polyacrylamide gels. For detection of XPA acetylation, anti-acetyl-lysine was employed.

[3] = test system: lung cancer cells; assay: Local UV irradiation and immunofluorescence (6-4PP repair kinetics, XPA foci); format: cell-based, human; conditions: for XPA foci-positive cells, Pt-PreC vs nonPreC: FIG. 7B
Method: Results are presented as mean±SD from three independent experiments. Differences were considered significant at the value of P<0.01 (**). FIGS. 8A to 8D show the upregulation of SIRT1 expression during PreC. […] GAPDH was used as a loading control. […] Histone H3 was used to indicate chromatin-enriched fraction. […] 60 minutes after local UV irradiation the 6-4PP foci-positive cells were counted from randomly selected 1000 cells in each sample. The bars and error bars represent the mean±s.d from three independent experiments. Differences were considered significant at the value of P<0.001 (***). […] After incubation for the recovery times the cells were fixed in 4% paraformaldehyde for 15 min, followed by conventional immunofluorescence staining procedures. UV-induced lesions were counter-labeled with anti-6-4PP antibody, and XPA foci-positive cells were counted for quantitative analysis. The images were captured using Nikon imaging software NIS-Elements 4.0.

[4] = test system: lung cancer cells; assay: Immunoslot blotting of Pt-GpG adduct removal after cisplatin preconditioning; format: cell-based, human
Method: FIGS. 4A and 4B show the enhanced Pt-GpG diadduct removal by Pt-PreC. […] The bars and error bars represent the mean±s.d from three independent experiments. A549 and H460 cells (American Type Culture Collection, Manassas, Va., USA) were cultured in Dulbecco's modified Eagle medium supplemented with 10% fetal bovine serum and 1% penicillin-streptomycin. 100% confluent cells were kept for additional four days to completely block cell proliferation and then exposed to the UV light using a germicidal lamp (for immunoslot blotting) or UV crosslinker (for immunofluorescence) emitting primarily UV-C light. A UV-C sensor (UV Products, Upland, Calif., USA) was used to calibrate the fluence rate of the incident light. For immunofluorescence staining, cells were grown on a glass coverslip coated with poly-D-lysine and laminin (BD Biosciences, San Jose, Calif., USA). For assessment of cell viability, CellTiter-Fluor Cell Viability Assay kit (Promega, Madison, Wis., USA) was used as indicated in manufacturer's protocol. Fluorescence plate reader (BIORAD, Hercules, Calif., USA) was used to measure a constitutive protease activity within live cells using a fluorogenic and cell permeable peptide substrate. […]

[5] = test system: lung cancer cells; assay: Immunoslot blotting of residual UV-induced CPDs after cisplatin preconditioning; format: cell-based, human; conditions: preconditioning with 5 μM cisplatin; 5 or 10 J/m^2 UV; FIGS. 3B and 3C
Method: FIGS. 3A to 3C show the enhanced UV-induced CPD repair activity following Pt-PreC. […] After immunoslot blotting the membrane was counterstained with SYBR-Gold for a loading control of genomic DNA. 5 J/m^2 (FIG. 3B) or 10 J/m^2 (FIG. 3C) of UV-induced CPD repair kinetics were measured from cells conditioned with nonPreC or Pt-PreC.
A549 and H460 cells (American Type Culture Collection, Manassas, Va., USA) were cultured in Dulbecco's modified Eagle medium supplemented with 10% fetal bovine serum and 1% penicillin-streptomycin. 100% confluent cells were kept for additional four days to completely block cell proliferation and then exposed to the UV light using a germicidal lamp (for immunoslot blotting) or UV crosslinker (for immunofluorescence) emitting primarily UV-C light. A UV-C sensor (UV Products, Upland, Calif., USA) was used to calibrate the fluence rate of the incident light. For immunofluorescence staining, cells were grown on a glass coverslip coated with poly-D-lysine and laminin (BD Biosciences, San Jose, Calif., USA). For assessment of cell viability, CellTiter-Fluor Cell Viability Assay kit (Promega, Madison, Wis., USA) was used as indicated in manufacturer's protocol. Fluorescence plate reader (BIORAD, Hercules, Calif., USA) was used to measure a constitutive protease activity within live cells using a fluorogenic and cell permeable peptide substrate. […]

[6] = test system: 6-4PP-containing DNA substrate; assay: Dual-incision NER activity assay with lysate of Pt-PreC cells; format: cell-based, human; conditions: FIG. 5
Method: Dual-incision NER activity assay was performed using isotope-labeled and 6-4PP-containing linear substrate DNA and cell lysates obtained from nonPreC and Pt-PreC cells at the indicated times after PreC. Amount of excision product was used as a measure of the NER capacity of the lysate. Results are presented as mean±SD from three independent experiments. Differences were considered significant at the values of P<0.01 (**) and P<0.001 (***). Assay of NER activity in the cell lysate toward 6-4PP-containing DNA substrate was carried out. Briefly, 10 fmol of 140-bp duplex with a 6-4PP in the center and ^32P-label at the 5th phosphodiester bond 5′ to the site of the lesion was incubated with 70 μg of lysate in 25 μL of excision buffer at 30° C. for 1 h. The amount of excision product was used as a measure of NER capacity in the lysate. The 6-4PP-containing linear duplex substrate DNA and NER-competent cell lysate were prepared.

| Structure (SMILES) | effect on UV-PreC-induced enhancement of XPA chromatin loading [1] | effect on the UV-PreC-induced decrease in acetylation level of XPA [2] | effect on PreC-induced repair capacity (6-4PP repair kinetics) ([3]; 1 μM EX-527 for 5 h before local UV irradiation, 6-4PP foci-positive cells counted 60 min after UV, FIG. 8C) | remaining Pt-GpG adduct after Pt-PreC ([4]; 48 h after Pt-PreC with 5 μM of cisplatin, FIG. 4A) | Pt-GpG repair kinetics upon following cisplatin treatment, Pt-PreC vs nonPreC ([4]; Pt-PreC 5 μM, then 10 μM cisplatin, FIG. 4B) | kinetics of CPD repair after the same dose of UV, preconditioned vs nonPreC [5] | 6-4PP removal, Pt-PreC vs nonPreC control ([3]; 200 J/m^2 local UV irradiation, FIG. 7A) | XPA foci-positive cells, Pt-PreC vs nonPreC ([3]; 60 min after UV exposure) | XPA foci-positive cells, Pt-PreC vs nonPreC ([3]; within 30 min of recovery time) | time after PreC at which NER activity peaked [6] [h] | time after PreC at which NER activity started to increase [6] [h] | time after PreC at which enhancement of NER capacity was no longer detected [6] [h] |
| --- | --- | --- | --- | --- | --- | --- | --- | --- | --- | --- | --- | --- |
| NC(=O)C1CCCc2c1[nH]c1ccc(Cl)cc21 (stereo not drawn) [EX527, 6-chloro-2,3,4,9-tetrahydro-1H-carbazole-1-carboxamide] | reduced in the presence of EX527 | immediately reversed | compromised by SIRT1 inhibition | – | – | – | – | – | – | – | – | – |
| N.N.[Cl][Pt][Cl] [cisplatin] | – | – | – | no remaining Pt-GpG adduct | much faster | much faster | accelerated the 6-4PP removal | approximately 3 times less | no difference | 48 | 12 | 72 |
